Target: SARS-CoV-2 3CL-protease (Severe acute respiratory syndrome coronavirus 2 (2019-nCoV) (SARS-CoV-2), UniProt P0DTD1)
Assay: SARS-CoV-2 3C-like (3CL) protease fluorescence assay (FRET)
Assay type: biochemical
Details: recombinant SARS-CoV-2 3CL-protease 10 nM, 30 min preincubation at RT, substrate 40 μM, duplicate

CC1(C)C2CN(C(=O)c3cc4c(OC(F)F)cccc4[nH]3)[C@H](C(=O)N[C@H](C#N)C[C@@H]3CCNC3=O)C21 (stereo in doubt) [Ex11, (1S,2S,5R)—N—((S)-1-cyano-2-((S)-2-oxopyrrolidin-3-yl)ethyl)-3-(4-(difluoromethoxy)-1H-indole-2-carbonyl)-6,6-dimethyl-3-azabicyclo[3.1.0]hexane-2-carboxamide] was tested. Which IC50 did it give?
Its IC50 is 100 to 1000 nM.

How did the IC50 turn out when COc1cccc2[nH]c(C(=O)N3C[C@@H]4CCC[C@@H]4[C@H]3C(=O)N[C@@H](C[C@@H]3CCNC3=O)C(=O)CCl)cc12 [Ex1, (1S,3aR,6aS)—N—((S)-4-chloro-3-oxo-1-((S)-2-oxopyrrolidin-3-yl)butan-2-yl)-2-(4-methoxy-1H-indole-2-carbonyl)octahydrocyclopenta[c]pyrrole-1-carboxamide] was run?
Its IC50 is 100 to 1000 nM.

COc1cccc2[nH]c(C(=O)N3C[C@@H]4CCC[C@@H]4[C@H]3C(=O)N[C@@H](C[C@@H]3CCNC3=O)C(=O)COC(=O)c3c(Cl)cccc3Cl)cc12 [Ex2, (S)-3-((1S,3aR,6aS)-2-(4-methoxy-1H-indole-2-carbonyl)octahydrocyclopenta[c]pyrrole-1-carboxamido)-2-oxo-4-((S)-2-oxopyrrolidin-3-yl)butyl 2,6-dichlorobenzoate] was tested. Which IC50 did it give?
Its IC50 is less than 100 nM.

Which IC50 does the source give for N#C[C@H](C[C@@H]1CCNC1=O)NC(=O)[C@@H]1[C@H]2CCC[C@H]2CN1C(=O)c1cc2c(OC(F)F)cccc2[nH]1 [Ex3, (1S,3aR,6aS)—N—((S)-1-cyano-2-((S)-2-oxopyrrolidin-3-yl)ethyl)-2-(4-(difluoromethoxy)-1H-indole-2-carbonyl)octahydrocyclopenta[c]pyrrole-1-carboxamide] here?
The IC50 was 100 to 1000 nM.

O=C[C@H](C[C@@H]1CCNC1=O)NC(=O)[C@@H]1[C@H]2CCC[C@H]2CN1C(=O)c1cc2c(OC(F)F)cccc2[nH]1 [Ex5, (1S,3aR,6aS)-2-(4-(difluoromethoxy)-1H-indole-2-carbonyl)-N—((S)-1-oxo-3-((S)-2-oxopyrrolidin-3-yl)propan-2-yl)octahydrocyclopenta[c]pyrrole-1-carboxamide] was tested. Which IC50 did it give?
Its IC50 is less than 100 nM.

For COc1cccc2[nH]c(C(=O)N3C[C@@H]4CCC[C@@H]4[C@H]3C(=O)N[C@H](C=O)C[C@@H]3CCNC3=O)cc12 [Ex6, (1S,3aR,6aS)-2-(4-methoxy-1H-indole-2-carbonyl)-N—((S)-1-oxo-3-((S)-2-oxopyrrolidin-3-yl)propan-2-yl)octahydrocyclopenta[c]pyrrole-1-carboxamide], which IC50 is on record?
The IC50 was less than 100 nM.

COc1cccc2[nH]c(C(=O)N3C[C@@H]4CCC[C@@H]4[C@H]3C(=O)N[C@H](C#N)C[C@@H]3CCCNC3=O)cc12 [Ex7, (1S,3aR,6aS)—N—((S)-1-cyano-2-((S)-2-oxopiperidin-3-yl)ethyl)-2-(4-methoxy-1H-indole-2-carbonyl)octahydrocyclopenta[c]pyrrole-1-carboxamide] was tested. Which IC50 did it give?
Its IC50 is less than 100 nM.

For O=C(NC1CCCCC1)C(=O)[C@H](C[C@@H]1CCNC1=O)NC(=O)[C@@H]1[C@H]2CCC[C@H]2CN1C(=O)c1cc2c(OC(F)F)cccc2[nH]1 [Ex8, (1S,3aR,6aS)—N—((S)-4-(cyclohexylamino)-3,4-dioxo-1-((S)-2-oxopyrrolidin-3-yl)butan-2-yl)-2-(4-(difluoromethoxy)-1H-indole-2-carbonyl)octahydrocyclopenta[c]pyrrole-1-carboxamide], which IC50 is on record?
Its IC50 is less than 100 nM.

For COc1cccc2[nH]c(C(=O)N3C[C@@H]4CCC[C@@H]4[C@H]3C(=O)N[C@@H](C[C@@H]3CCNC3=O)C(=O)C(=O)NC3CCCCC3)cc12 [Ex9, (1S,3aR,6aS)—N—((S)-4-(cyclohexylamino)-3,4-dioxo-1-((S)-2-oxopyrrolidin-3-yl)butan-2-yl)-2-(4-methoxy-1H-indole-2-carbonyl)octahydrocyclopenta[c]pyrrole-1-carboxamide], which IC50 is on record?
Its IC50 is less than 100 nM.

With COc1cccc2[nH]c(C(=O)N3C[C@@H]4CCC[C@@H]4[C@H]3C(=O)N[C@@H](C[C@@H]3CCNC3=O)C(=O)CO)cc12 [Ex10, (1S,3aR,6aS)—N—((S)-4-hydroxy-3-oxo-1-((S)-2-oxopyrrolidin-3-yl)butan-2-yl)-2-(4-methoxy-1H-indole-2-carbonyl)octahydrocyclopenta[c]pyrrole-1-carboxamide] as the molecule, how does the IC50 read?
Its IC50 is 100 to 1000 nM.

Which IC50 does the source give for N#C[C@H](C[C@@H]1CCNC1=O)NC(=O)[C@@H]1CCCN1C(=O)c1cc2c(OC(F)F)cccc2[nH]1 [Ex12, (S)—N—((S)-1-cyano-2-((S)-2-oxopyrrolidin-3-yl)ethyl)-1-(4-(difluoromethoxy)-1H-indole-2-carbonyl)pyrrolidine-2-carboxamide] here?
Its IC50 is greater than 1000 nM.

With N#C[C@H](C[C@@H]1CCNC1=O)NC(=O)[C@@H]1[C@H]2CCC[C@H]2CN1C(=O)c1cc2c(F)cc(F)cc2[nH]1 [Ex13, (1S,3aR,6aS)—N—((S)-1-cyano-2-((S)-2-oxopyrrolidin-3-yl)ethyl)-2-(4,6-difluoro-1H-indole-2-carbonyl)octahydrocyclopenta[c]pyrrole-1-carboxamide] as the molecule, how does the IC50 read?
The IC50 was 100 to 1000 nM.

For N#C[C@H](C[C@@H]1CCNC1=O)NC(=O)[C@@H]1[C@H]2CCC[C@H]2CN1C(=O)c1cc2c(Cl)cccc2[nH]1 [Ex14, (1S,3aR,6aS)-2-(4-chloro-1H-indole-2-carbonyl)-N—((S)-1-cyano-2-((S)-2-oxopyrrolidin-3-yl)ethyl)octahydrocyclopenta[c]pyrrole-1-carboxamide], which IC50 is on record?
The IC50 was 100 to 1000 nM.

Which IC50 does the source give for O=C(NCc1ccccc1)C(=O)[C@H](C[C@@H]1CCNC1=O)NC(=O)[C@@H]1[C@H]2CCC[C@H]2CN1C(=O)c1cc2c(OC(F)F)cccc2[nH]1 [Ex15, (1S,3aR,6aS)—N—((S)-4-(benzylamino)-3,4-dioxo-1-((S)-2-oxopyrrolidin-3-yl)butan-2-yl)-2-(4-(difluoromethoxy)-1H-indole-2-carbonyl)octahydrocyclopenta[c]pyrrole-1-carboxamide] here?
Its IC50 is less than 100 nM.

How did the IC50 turn out when CC1(C)[C@@H]2[C@@H](C(=O)N[C@H](C#N)C[C@@H]3CCNC3=O)N(C(=O)c3cc4cc(F)cc(F)c4[nH]3)C[C@@H]21 [Ex16, (1R,2S,5S)—N—((S)-1-cyano-2-((S)-2-oxopyrrolidin-3-yl)ethyl)-3-(5,7-difluoro-1H-indole-2-carbonyl)-6,6-dimethyl-3-azabicyclo[3.1.0]hexane-2-carboxamide] was run?
The IC50 was 100 to 1000 nM.

For CC1(C)[C@@H]2[C@@H](C(=O)N[C@H](C#N)C[C@@H]3CCNC3=O)N(C(=O)c3cc4cc(F)c(F)cc4[nH]3)C[C@@H]21 [Ex17, (1R,2S,5S)—N—((S)-1-cyano-2-((S)-2-oxopyrrolidin-3-yl)ethyl)-3-(5,6-difluoro-1H-indole-2-carbonyl)-6,6-dimethyl-3-azabicyclo[3.1.0]hexane-2-carboxamide], which IC50 is on record?
Its IC50 is 100 to 1000 nM.

Which IC50 does the source give for CC1(C)[C@@H]2[C@@H](C(=O)N[C@H](C#N)C[C@@H]3CCNC3=O)N(C(=O)c3cc4c(F)cc(F)cc4[nH]3)C[C@@H]21 [Ex18, (1R,2S,5S)—N—((S)-1-cyano-2-((S)-2-oxopyrrolidin-3-yl)ethyl)-3-(4,6-difluoro-1H-indole-2-carbonyl)-6,6-dimethyl-3-azabicyclo[3.1.0]hexane-2-carboxamide] here?
The IC50 was 100 to 1000 nM.

How did the IC50 turn out when N#C[C@H](C[C@@H]1CCNC1=O)NC(=O)[C@@H]1C[C@H](Oc2ccccc2)CN1C(=O)c1cc2c(OC(F)F)cccc2[nH]1 [Ex19, (2S,4S)—N—((S)-1-cyano-2-((S)-2-oxopyrrolidin-3-yl)ethyl)-1-(4-(difluoromethoxy)-1H-indole-2-carbonyl)-4-phenoxypyrrolidine-2-carboxamide] was run?
The IC50 was greater than 1000 nM.

Source: US11358953B2, “Functionalized peptides as antiviral agents” (ENANTA PHARMACEUTICALS, INC., priority 2020, dated 2022)
